According to ChEMBL document CHEMBL3621124, “Synthesis, cytotoxicity and inhibition of NO production of ivangustin enantiomer analogues” (Eur J Med Chem, 2015):

Legend:
A549 = assay: Cytotoxicity against human A549 cells assessed as growth inhibition incubated for 72 hrs by MTT assay; type: functional, cell-based; conditions: A549, 72 h
[1] = Cytotoxicity against human QGY7701 cells assessed as growth inhibition incubated for 72 hrs by MTT assay; type: functional, cell-based; conditions: QGY7701, 72 h
MCF7 = assay: Cytotoxicity against human MCF7 cells assessed as growth inhibition incubated for 72 hrs by MTT assay; type: functional, cell-based; conditions: MCF7, 72 h
RAW264.7 [2] = assay: Cytotoxicity against LPS-induced mouse RAW264.7 cells incubated for 18 hrs by MTT assay; type: cell-based; conditions: RAW264.7, 18 h
HL-60 = assay: Cytotoxicity against human HL60 cells assessed as growth inhibition incubated for 72 hrs by CCK8 assay; type: functional, cell-based; conditions: HL-60, 72 h
HCT-116 = assay: Cytotoxicity against human HCT116 cells assessed as growth inhibition incubated for 72 hrs by MTT assay; type: functional, cell-based; conditions: HCT-116, 72 h
RAW264.7 [3] = assay: Anti-inflammatory activity against LPS-induced mouse RAW264.7 cells assessed as inhibition of nitric oxide production incubated for 20 mins before LPS induction by Griess method; type: functional, cell-based
SMMC-7721 = assay: Cytotoxicity against human SMMC7721 cells assessed as growth inhibition incubated for 72 hrs by MTT assay; type: functional, cell-based; conditions: SMMC-7721, 72 h

Row | IC50 (RAW264.7 [3]) | SMILES | IC50 (A549) | IC50 [1] | IC50 (MCF7) | IC50 (RAW264.7 [2]) | IC50 (HL-60) | IC50 (HCT-116) | IC50 (SMMC-7721)
1 | 4.63 µM | C=C(C)CC[C@H](OC(C)=O)[C@@]1(C)C[C@@H]2OC(=O)C(=C)[C@@H]2CC1=O | 11 µM | 4.88 µM | 12 µM | 14.4 µM | 7.31 µM | 8.53 µM | 24.8 µM
2 | 6.12 µM | C=C(C)CC[C@H](O)[C@@]1(C)C[C@@H]2OC(=O)C(=C)[C@@H]2CC1=O | 17.4 µM | 8.7 µM | 18.9 µM | 26.6 µM | 14.8 µM | 19.2 µM | 53.1 µM
3 | 4.72 µM | C=C1C(=O)O[C@H]2C[C@](C)(/C=C/C(=O)CC)C(=O)C[C@@H]12 | 10.5 µM | 6.16 µM | 9.03 µM | 9.94 µM | 1.02 µM | 5.8 µM | 25.4 µM
4 | 6.99 µM | C=C1C(=O)O[C@H]2C[C@](C)(C(=O)CC(=O)CC)C(=O)C[C@@H]12 | 21.9 µM | 13.7 µM | 27.2 µM | 47.2 µM | 16.4 µM | 21 µM | 48.6 µM
5 | 4.26 µM | C=C1C(=O)O[C@H]2C[C@]3(C)C(=O)C=C(CC)[C@@H](C3=O)[C@@H]12 | 9.65 µM | 5.55 µM | 11.6 µM | 12.2 µM | 3.8 µM | 9.94 µM | 27.2 µM
6 | 5.82 µM | C=C1C(=O)O[C@H]2C[C@@H](C)C(=O)C[C@@H]12 | 14.9 µM | 8.58 µM | 15.7 µM | 30.6 µM | 12.6 µM | 18.3 µM | 42.6 µM

Continued, compound first:

Row | SMILES | IC50 (RAW264.7 [3]) | IC50 (A549) | IC50 [1] | IC50 (MCF7) | IC50 (RAW264.7 [2]) | IC50 (HL-60) | IC50 (HCT-116) | IC50 (SMMC-7721)
7 | C=C1C(=O)O[C@H]2C[C@@]3(C)C(=O)[C@@H]([C@@H]12)[C@](O)(CC)C[C@@H]3OCOC | 6.7 µM | 17 µM | 7.75 µM | 16.4 µM | 20.1 µM | 9.37 µM | 14.5 µM | 31.7 µM
8 | C=C1C(=O)O[C@H]2C[C@]3(C)C(=O)C=C(CC)OC3=C[C@@H]12 | 3.44 µM | 9.58 µM | 3.55 µM | 7.86 µM | 10.3 µM | 5.06 µM | 9.37 µM | 19.6 µM
9 | COc1cccc2c1C(=O)c1c(O)c3c(c(O)c1C2=O)C[C@@](O)(C(=O)CO)C[C@@H]3O[C@H]1C[C@H](N)[C@H](O)[C@H](C)O1 [DOXORUBICIN] |  |  |  |  |  |  | 0.18 µM | 0.57 µM
10 | N=C(N)NN [PIMAGEDINE] | 11.9 µM |  |  |  |  |  |  | 
